Experimental data from patent publication US11833154B2, “Methods of treatment of myeloproliferative neoplasm” (priority 2017, dated 2023).

Columns and labels:
JAK2/IDH2-mutant MPN [1] = assay: Bone marrow stem and progenitor populations by FACS in treated recipients; assay type: in vivo, mice; conditions: for Erythrocyte progenitors: Pre-erythrocytes / Pre-MegE populations / Erythrocyte progenitors: CFU-E / Erythrocyte progenitors: Pre-CFU-E: bone marrow FACS; for Erythrocyte progenitors: Pre-erythrocytes / Pre-MegE populations / Erythrocyte progenitors: CFU-E / Erythrocyte progenitors: Pre-CFU-E / Total LSK number in the bone marrow: four weeks of treatment; for Erythrocyte progenitors: Pre-erythrocytes / Pre-MegE populations: vehicle 0.1757; for Erythrocyte progenitors: CFU-E: vehicle 1.621; for Erythrocyte progenitors: Pre-CFU-E: vehicle mean 0.5189%; for Total LSK number in the bone marrow: double mutant mice, vehicle mean 57.19×10^3
Experimental: (§1) Dissected femurs and tibias were isolated. Bone marrow was flushed into PBS+2% BSA or RPMI+10% FCS using a syringe or by centrifuge spin. Spleens were isolated and single cell suspensions made by mechanical disruption using glass slides. All harvested cells were passed through a […] strainer. Red blood cells (RBCs) were lysed in ammonium chloride-potassium bicarbonate lysis buffer for 10 min on ice. Cells were transplanted by via tail vein injection into lethally irradiated (2×550 Rad) CD45.1 host mice. For noncompetitive transplants, 1×10^6 total cells were transplanted; for competitive transplants including drug studies, 1×10^6 total donor cells were injected in a mixture with 1×10^6 cells from a congenic CD45.1 donor; for cell of origin transplants, injection number was determined based on the lowest yield after sort to inject approximately 100,000 MPP or 300 LT-HSC with 300,000 whole bone marrow cells from a CD45.1 donor.
(§2) Cells were stained with antibodies in FACS Buffer (2% Bovine Serum Albumin in phosphate-buffered saline (PBS)) for 30 min on ice. Donor and support chimerism was assessed using antibodies against CD45.1 (Clone A20, Biolegend) and CD45.2 (Clone 104, BioLegend).
Cells were also stained with antibodies specific to c-Kit/CD117 (clone 2B8, BioLegend), Sca-1 (clone D7, BioLegend), FcγRII/III/CD16/32 (clone 2.4G2, eBiosciences) and CD34 (clone RAM34, eBiosciences) or SLAM/CD150 (TC15-12F12.2, BioLegend) and CD48 (HM48-1, eBioscience). To assess mature cell lineages we used a combination of antibodies against Mac1, Gr-1, B220, CD3, cKit/CD117, CD45.1, and CD45.2.
To assess erythroid and megakaryocyte progenitors we stained unlysed tissues with a lineage cocktail including CD4, CD8, B220/CD45R, Mac1/CD11b, Gr-1, IL7R/CD127 (A7R34, BioLegend), CD49b (DX5, BioLegend). Antibodies were also used against c-Kit/CD117, Sca-1, SLAM/CD150, CD48, FcγRII/III/CD16/32, CD41 (eBioMWReg30, eBioscience), CD105 (MJ7/18, BioLegend), CD71 (RI7217, BioLegend), and Ter119 and gated as described by Pronk et al., Elucidation of the Phenotypic, Functional, and Molecular Topography of a Myeloerythroid Progenitor Cell Hierarchy, Cell Stem Cell 2007; 1:428-42.

JAK2/IDH2-mutant MPN [2] = assay: Therapeutic assay: spleen weight, hematocrit and leukocyte count at sacrifice; assay type: in vivo, mice; conditions: IDH2^R140Q JAK2^V617F bone marrow recipients, four weeks of treatment; vehicle mean 289.1
Experimental: as §1

[3] = tested on: samples from patients with MPN and Post-MPN AML with IDH2^R140Q and JAK2^V617F mutations; assay: Human colony forming (methylcellulose) assay; assay type: cell-based; conditions: Methocult H4435, 400 nM
Experimental: Approval was obtained from the Institutional Review Board at Memorial Sloan-Kettering Cancer Center. Tissues were collected in partnership with the Human Oncology Tissue Bank, and all patients provided informed consent. Fresh peripheral blood was collected into heparinized collection tubes, and separation of peripheral blood mononuclear cells (PBMC) was performed using hetastarch and a Ficoll gradient with subsequent red blood cell lysis.
(§3) Frozen or fresh PBMCs were plated in Methocult H4435 (Stem Cell) with penicillin and streptomycin in triplicate wells. MPN patient cells were plated after enrichment using CD34 Microbeads (Miltenyi) at 1,000 cells per well; AML patient cells were plated without enrichment at 100,000 cells per well.

JAK2/IDH2 mutant MPN = assay: Histology of bone marrow and spleen of treated recipients; assay type: in vivo, mice
Experimental: Pathology was obtained after fixation in 4% paraformaldehyde (PFA); blood smears and bone marrow cytospins were performed on the day of sacrifice. Sections were stained with hematoxylin and eosin stain or Wright Giemsa stain as appropriate. CD34+ staining was performed using CD34, Rat Monoclonal Antibody Performed on a Leica Bond™ RX using the Bond™ Polymer Refine Detection Kit (Cat. No. DS9800). The sections stained with CD34 (Abcam, Cat. Ab8158 diluted 1:50) were pre-treated using heat mediated antigen retrieval with Citrate, pH6 (Leica Biosystem Epitope Retrieval 1, Cat. No. AR9961) for 20 min. DAB was used as the chromogen, counterstained with hematoxylin and mounted.

[4] = tested on: IDH2^R140Q JAK2^V61F mutant cells; assay: Serum 2HG levels in treated transplant recipient mice (LC-MS); assay type: in vivo; conditions: mice engrafted with IDH2^R140Q JAK2^V617F cells; oral AG221 40-100 mg/kg, ruxolitinib 60 mg per kg, BID; at sacrifice after four weeks; vehicle mean 1874
Experimental: as §1
2HG was extracted from serum using 80% aqueous methanol, as described by Lu et al., […]. […] All extracts were spun at 13,000 rpm at 4° C. to remove precipitate, dried at room temperature, and stored at −80° C.

[5] = tested on: IDH2^R140Q JAK2^V617F MPN cells (CD45.2^+); assay: Paired donor chimerism in peripheral blood before and after treatment; assay type: in vivo, mice; conditions: four weeks of treatment, vehicle +4.236
Experimental: as §1, §2

[6] = tested on: JAK2/IDH2-mutant MPN/AML cells; assay: FACS of cell surface markers on cultured human colony cells; assay type: cell-based; conditions: cultured patient cells, 400 nM
Experimental: as §3
To observe monocytic and granulocytic differentiation, antibodies against CD117/cKit, CD34, CD38, CD15 (HI98, eBioscience), CD14 (HCD14, BioLegend), and CD16 (3G8, BioLegend) were used.

[7] = tested on: JAK2/IDH2-mutant MPN cell metabolism; assay: LC/MS metabolite analysis of bone marrow aspirates from treated mice; assay type: in vivo, mouse
Experimental: External mass calibration was performed using the standard calibration mixture every 7 days. […] Buffer A was 20 mM ammonium carbonate, 0.1% ammonium hydroxide; buffer B was acetonitrile. […] The sheath gas flow was set to 40 units, the auxiliary gas flow was set to 15 units, and the sweep gas flow was set to 1 unit. […] Relative quantitation of polar metabolites was performed with XCalibur QuanBrowser 2.2 (Thermo Fisher Scientific) using a 5 ppm mass tolerance and referencing an in-house library of chemical standards.

[8] = tested on: IDH2^R140Q JAK2^V617F mutant LSK; assay: RNA-sequencing of donor-derived CD45.2 LSK from treated mice (GSEA); assay type: in vivo
Experimental: Before cell of origin transplants, sorting was performed on bone marrow with enrichment for cKit/CD117-positive cells using CD117 MicroBeads (Miltenyi). For expression analysis, sorting was performed on bone marrow that had been depleted of mature cells using Progenitor Cell Enrichment Kit ([…] Technologies).
CD45.2+ LSK cells were sorted into ice cold FACS Buffer, pelleted, and stored in Triazol until extraction of RNA using phenol-chlorophorm. The library was produced using SMARTer amplification (Clontech) amplify and create the library. Illumina sequencing was performed using Paired-End 50 bp at 40×10^6 reads per sample.

[9] = CD45.2 LSK RNA-seq, GSEA, p<1e-4
[10] = stem cells of treated mice versus wild type, Hallmark GSEA

CC(C)(O)CNc1nc(Nc2ccnc(C(F)(F)F)c2)nc(-c2cccc(C(F)(F)F)n2)n1 [AG221, 2-methyl-1-[(4-[6-(trifluoromethyl)pyridin-2-yl]-6-{[2-(trifluoromethyl)pyridin-4-yl]amino}-1,3,5-triazin-2-yl)amino]propan-2-ol]
Erythrocyte progenitors: Pre-erythrocytes (JAK2/IDH2-mutant MPN [1]): 0.03906 | Pre-MegE populations (JAK2/IDH2-mutant MPN [1]): 0.03906 | Erythrocyte progenitors: CFU-E (JAK2/IDH2-mutant MPN [1]): 0.8251 | Erythrocyte progenitors: Pre-CFU-E (JAK2/IDH2-mutant MPN [1]): 0.1913% | Proportion of CD45.2 myeloid progenitor populations (JAK2/IDH2-mutant MPN [1]; donor-derived cells, number of CD45.1 myeloid progenitors not affected): reduced | Total LSK number in the bone marrow (JAK2/IDH2-mutant MPN [1]): 36.43×10^3 | Splenomegaly: spleen weight (mean) (JAK2/IDH2-mutant MPN [2]): 188.3 mg | BFU-E colonies [3]: presence of BFU-E colonies | Colony number / colony output ([3]; DMSO controls): increase in colony number | Aberrant CD34 expression in megakaryocytes (JAK2/IDH2 mutant MPN; CD34 immunohistochemical stain of bone marrow): resulted the aberrant CD34 expression seen in megakaryocytes | Expansion of spleen blasts (JAK2/IDH2 mutant MPN; histology, compared with untreated JAK2/IDH2 mutant MPN): eliminated the expansion of spleen blasts | Serum 2HG levels (mean) [4]: 744.4 ng/mL | Mutant donor chimerism, mean change pre- and post-treatment [5]: −6.291% | Differentiation markers CD235a / CD14 [6]: upregulation | Surface expression of immature marker cKit/CD117 / proportion of c-Kit positive colonies [6]: reduced | 2HG levels in bone marrow aspirates ([7]; after 10 days of treatment): Reduction | Levels of Kreb's cycle intermediates (α-ketoglutarate, citrate, succinate, fumarate, malate) ([7]; bone marrow aspirates, 10 days of treatment, p<0.0252): reduced | NES, downregulated genes of the combination-therapy signature also altered by monotherapy [8, 9]: −2.3 | NES, upregulated genes of the combination-therapy signature also reversed by monotherapy [8, 9]: +1.9 | IL6/JAK/STAT3 gene expression signature [8, 10]: enrichment for expression of genes in this pathway were seen | Interferon gamma signatures [8, 10]: significantly enriched | Oncogenic signatures (cMYC, mTOR, KRAS) [8, 10]: highly significant enrichment

N#CC[C@H](C1CCCC1)n1cc(-c2ncnc3[nH]ccc23)cn1 [ruxolitinib, reference compound]
Erythrocyte progenitors: Pre-erythrocytes (JAK2/IDH2-mutant MPN [1]): 0.08063 | Pre-MegE populations (JAK2/IDH2-mutant MPN [1]): 0.08063 | Erythrocyte progenitors: CFU-E (JAK2/IDH2-mutant MPN [1]): 0.5553 | Erythrocyte progenitors: Pre-CFU-E (JAK2/IDH2-mutant MPN [1]): 0.1103% | Total LSK number in the bone marrow (JAK2/IDH2-mutant MPN [1]): 20.73×10^3 | Splenomegaly: spleen weight (mean) (JAK2/IDH2-mutant MPN [2]): 101.3 mg | Serum 2HG levels (mean) [4]: 1233 ng/mL | Mutant donor chimerism, mean change pre- and post-treatment [5]: +3.256% | NES, downregulated genes of the combination-therapy signature also altered by monotherapy [8, 9]: −2.2
